Columns and labels:
A673 cells = assay: Dose-response cell proliferation, crystal violet assay, 72 h; format: cell-based; settings: ratio of IC50 in NHDF cells to IC50 in A673 cells
Experimental: Small molecule splicing modulators were tested in a dose-response assay using A673 cells and NHDF cells.
A673 cells or NHDF cells were first plated in 96-well plastic tissue culture plates (10,000 cells per well). The cells were treated with vehicle alone (DMSO), or increasing concentrations of SMSM compounds for 72 h. Following treatment, cell proliferation was determined using a crystal violet assay. The relative cell proliferation at each concentration was determined.

A673 xenografts = assay: A673 xenograft tumor growth inhibition; format: in vivo; settings: immunocompromised nude mice with pre-existing A673 xenografts
Experimental: Dose range and time course studies comparing anti-neoplastic effects of SMSM-167 and SMSM-151 against vehicle were conducted.
Female NCrNu mice were used. Age range of enrolment was 7-10 weeks. A total of 75animals were for the studies.
The A673 tumor cell line was maintained in vitro as a monolayer culture. […] The cells growing in an exponential growth phase were harvested and counted for tumor inoculation.
Each mouse were inoculated into aright flank with the single cell suspension of 95% viable tumor cells (5×10^6 cells/mouse) in serum-free RPMI 1640 Media for tumor development. Treatments were administered when mean tumor size reached approximately 75 mm^3. […]
Body weight were measured prior to tumor inoculation and prior to the treatment administration and then daily. Tumor size were measured 2-3 times per week in two dimensions using a caliper, and the volume were expressed in mm^3 using the formula: V=0.5×a×b^2 where a and b are the long and short diameters of the tumor, respectively. […]
Studies were performed to assess the effects of in vivo SMSM treatment on glioblastoma, breast, pancreatic, prostate, melanoma, lymphoma and Ewing sarcoma tumors. […] After SMSM treatment, mRNA was isolated from the xenografts and was analyzed by qRT-PCR.
Tumor size was measured 2 times per week in two dimensions using a caliper. […]

[1] = Splicing (IC50), Example 22; format: cell-based; settings: spliced gene and cells not stated
Experimental: A-673 cell viability […], splicing (IC50) and brain AUC/Plasma AUC of SMSMs were determined. As shown in the tables below SMSMs had high CNS exposure.

[2] = Maximum tolerable dose study; format: in vivo; settings: mice, 3 per group
Experimental: Survival of mice after administration of SMSMs after 10 or 11 days was assessed.
Tolerance of the drug treatments was determined by measuring the weight of the mice during the period of drug administration. Body weight was measured prior to tumor inoculation and prior to the treatment administration and then daily. The changes in the final weight of the mice for the SMSM treatments were determined.

SMILES | Ratio NHDF/A673 IC50 (A673 cells) | tumor growth inhibition (TGI), in words (A673 xenografts) | IC50 [1] [nM] | Outcome ([2]; IP 1 mg/kg QDx11) | Outcome ([2]; PO 10 mg/kg BIDx11) | Outcome ([2]; PO 10 mg/kg QDx11)
CN(c1ccc(-c2ccc(-c3cn[nH]c3)cc2O)nn1)[C@H]1C[C@]2(C)CC[C@](C)(C1)N2 [compound 151, 2-(6-(((1R,3s,5S)-1,5-dimethyl-8-azabicyclo[3.2.1]octan-3-yl)(methyl)amino)pyridazin-3-yl)-5-(1H-pyrazol-4-yl)phenol] | >350 | led to tumor growth inhibition | < 1 | All survived | All survived | All survived
CN(c1ccc(-c2ccc(-c3cn[nH]c3)cc2O)nn1)[C@@H]1C[C@H]2CCC[C@@H](C1)N2 [compound 160, 2-(6-(((1R,3s,5S)-9-azabicyclo[3.3.1]nonan-3-yl)(methyl)amino)pyridazin-3-yl)-5-(1H-pyrazol-4-yl)phenol] | – | led to tumor growth inhibition | < 1 | – | – | –

Source: patent publication US11008572B2, “Methods and compositions for modulating splicing” (SKYHAWK THERAPEUTICS, INC., priority 2017, dated 2021)
